# Data reported in PubChem BioAssay (NCI).
#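 96-well plates; 48 h exposure; 5 concentrations. Endpoints by linear interpolation between flanking doses. Not reached: highest tested concentration assigned. TGI is the concentration that stops growth completely.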
# Tests used:
# Assay in all cases: NCI anticancer screen, dose series, 48 h
# LOX IMVI melanoma = tested on: LOX IMVI melanoma
# NCI/ADR-RES ovarian = tested on: NCI/ADR-RES ovarian
# U251 CNS = tested on: U251 CNS
# DU-145 prostate = tested on: DU-145 prostate
# OVCAR-5 ovarian = tested on: OVCAR-5 ovarian
# IGROV1 ovarian = tested on: IGROV1 ovarian
# M14 melanoma = tested on: M14 melanoma
# SK-MEL-2 melanoma = tested on: SK-MEL-2 melanoma
# HCT-116 colon = tested on: HCT-116 colon
# HCT-15 colon = tested on: HCT-15 colon
# CAKI-1 renal = tested on: CAKI-1 renal
# KM12 colon = tested on: KM12 colon
# HS 578T breast = tested on: HS 578T breast
# NCI-H23 lung = tested on: NCI-H23 lung
# BT-549 breast = tested on: BT-549 breast
# OVCAR-8 ovarian = tested on: OVCAR-8 ovarian
# OVCAR-4 ovarian = tested on: OVCAR-4 ovarian
# SF-295 CNS = tested on: SF-295 CNS
# HCC-2998 colon = tested on: HCC-2998 colon
# NCI-H226 lung = tested on: NCI-H226 lung
# SR leukemia = tested on: SR leukemia
# MDA-MB-435 = tested on: MDA-MB-435
# EKVX NSCLC = tested on: EKVX NSCLC
# TK-10 renal = tested on: TK-10 renal
# NCI-H522 lung = tested on: NCI-H522 lung
# SNB-75 CNS = tested on: SNB-75 CNS
# CCRF-CEM leukemia = tested on: CCRF-CEM leukemia
# SN12C renal = tested on: SN12C renal
# MOLT-4 leukemia = tested on: MOLT-4 leukemia
# MDA-MB-231 breast = tested on: MDA-MB-231 breast
# 786-0 renal = tested on: 786-0 renal
# HT29 colon = tested on: HT29 colon
# K-562 leukemia = tested on: K-562 leukemia
# UO-31 renal = tested on: UO-31 renal
# COLO 205 colon = tested on: COLO 205 colon
# PC-3 prostate = tested on: PC-3 prostate
# ACHN renal = tested on: ACHN renal
# SF-268 CNS = tested on: SF-268 CNS
# RPMI-8226 leukemia = tested on: RPMI-8226 leukemia
# HL-60(TB) leukemia = tested on: HL-60(TB) leukemia
# MDA-N = tested on: MDA-N
# SW-620 colon = tested on: SW-620 colon
# UACC-257 melanoma = tested on: UACC-257 melanoma
# MCF7 breast = tested on: MCF7 breast
# OVCAR-3 ovarian = tested on: OVCAR-3 ovarian
# UACC-62 melanoma = tested on: UACC-62 melanoma
# HOP-62 NSCLC = tested on: HOP-62 NSCLC
# A549 NSCLC = tested on: A549 NSCLC
# RXF 393 renal = tested on: RXF 393 renal
# SK-OV-3 ovarian = tested on: SK-OV-3 ovarian
# SNB-19 CNS = tested on: SNB-19 CNS
# T-47D breast = tested on: T-47D breast
# SK-MEL-5 melanoma = tested on: SK-MEL-5 melanoma
# SK-MEL-28 melanoma = tested on: SK-MEL-28 melanoma
# NCI-H460 lung = tested on: NCI-H460 lung
# A498 renal = tested on: A498 renal
# MALME-3M melanoma = tested on: MALME-3M melanoma
# SF-539 CNS = tested on: SF-539 CNS
# HOP-92 NSCLC = tested on: HOP-92 NSCLC
smiles,measurement,setting,value
CCC(=O)N1NC(=O)C(CC)(CC)C1=O,TGI,LOX IMVI melanoma,> 100 µM
same,TGI,NCI/ADR-RES ovarian,> 100 µM
same,TGI,U251 CNS,> 100 µM
same,TGI,DU-145 prostate,> 100 µM
same,TGI,OVCAR-5 ovarian,> 100 µM
same,TGI,IGROV1 ovarian,> 100 µM
same,TGI,M14 melanoma,> 100 µM
same,TGI,SK-MEL-2 melanoma,> 100 µM
same,TGI,HCT-116 colon,> 100 µM
same,TGI,HCT-15 colon,> 100 µM
same,TGI,CAKI-1 renal,> 100 µM
same,TGI,KM12 colon,> 100 µM
same,TGI,HS 578T breast,> 100 µM
same,TGI,NCI-H23 lung,> 100 µM
same,TGI,BT-549 breast,> 100 µM
same,TGI,OVCAR-8 ovarian,> 100 µM
same,TGI,OVCAR-4 ovarian,> 100 µM
same,TGI,SF-295 CNS,> 100 µM
same,TGI,HCC-2998 colon,> 100 µM
same,TGI,NCI-H226 lung,> 100 µM
same,TGI,SR leukemia,> 100 µM
same,TGI,MDA-MB-435,> 100 µM
same,TGI,EKVX NSCLC,> 100 µM
same,TGI,TK-10 renal,> 100 µM
same,TGI,NCI-H522 lung,> 100 µM
same,TGI,SNB-75 CNS,> 100 µM
same,TGI,CCRF-CEM leukemia,> 100 µM
same,TGI,SN12C renal,> 100 µM
same,TGI,MOLT-4 leukemia,> 100 µM
same,TGI,MDA-MB-231 breast,> 100 µM
same,TGI,786-0 renal,> 100 µM
same,TGI,HT29 colon,> 100 µM
same,TGI,K-562 leukemia,> 100 µM
same,TGI,UO-31 renal,> 100 µM
same,TGI,COLO 205 colon,> 100 µM
same,TGI,PC-3 prostate,> 100 µM
same,TGI,ACHN renal,> 100 µM
same,TGI,SF-268 CNS,> 100 µM
same,TGI,RPMI-8226 leukemia,> 100 µM
same,TGI,HL-60(TB) leukemia,> 100 µM
same,TGI,MDA-N,> 100 µM
same,TGI,SW-620 colon,> 100 µM
same,TGI,UACC-257 melanoma,> 100 µM
same,TGI,MCF7 breast,> 100 µM
same,TGI,OVCAR-3 ovarian,> 100 µM
same,TGI,UACC-62 melanoma,> 100 µM
same,TGI,HOP-62 NSCLC,> 100 µM
same,TGI,A549 NSCLC,> 100 µM
same,TGI,RXF 393 renal,> 100 µM
same,TGI,SK-OV-3 ovarian,> 100 µM
same,TGI,SNB-19 CNS,> 100 µM
same,TGI,T-47D breast,> 100 µM
same,TGI,SK-MEL-5 melanoma,> 100 µM
same,TGI,SK-MEL-28 melanoma,> 100 µM
same,TGI,NCI-H460 lung,> 100 µM
COc1ccc(OC)c(C23CCCC(C2)N(C)CC3)c1 (stereo not given),TGI,NCI/ADR-RES ovarian,> 100 µM
same,TGI,U251 CNS,27.6 µM
same,TGI,DU-145 prostate,91.9 µM
same,TGI,OVCAR-5 ovarian,> 100 µM
same,TGI,M14 melanoma,34.1 µM
same,TGI,SK-MEL-2 melanoma,53 µM
same,TGI,HCT-116 colon,41.3 µM
same,TGI,HCT-15 colon,> 100 µM
same,TGI,CAKI-1 renal,> 100 µM
same,TGI,KM12 colon,33.5 µM
same,TGI,HS 578T breast,> 100 µM
same,TGI,NCI-H23 lung,> 100 µM
same,TGI,BT-549 breast,> 100 µM
same,TGI,OVCAR-4 ovarian,62.1 µM
same,TGI,SF-295 CNS,66.2 µM
same,TGI,SR leukemia,44.7 µM
same,TGI,MDA-MB-435,37.9 µM
same,TGI,EKVX NSCLC,> 100 µM
same,TGI,TK-10 renal,> 100 µM
same,TGI,SN12C renal,> 100 µM
same,TGI,MOLT-4 leukemia,> 100 µM
same,TGI,MDA-MB-231 breast,> 100 µM
same,TGI,786-0 renal,85.3 µM
same,TGI,HT29 colon,49.1 µM
same,TGI,K-562 leukemia,43 µM
same,TGI,UO-31 renal,> 100 µM
same,TGI,PC-3 prostate,41.2 µM
same,TGI,ACHN renal,78.1 µM
same,TGI,SF-268 CNS,> 100 µM
same,TGI,RPMI-8226 leukemia,42.2 µM
same,TGI,MDA-N,74.6 µM
same,TGI,UACC-257 melanoma,> 100 µM
same,TGI,MCF7 breast,32.1 µM
same,TGI,OVCAR-3 ovarian,46.7 µM
same,TGI,A498 renal,89.9 µM
same,TGI,UACC-62 melanoma,46 µM
same,TGI,A549 NSCLC,> 100 µM
same,TGI,RXF 393 renal,61.2 µM
same,TGI,SNB-19 CNS,49 µM
same,TGI,T-47D breast,> 100 µM
same,TGI,NCI-H460 lung,52 µM
OCC1OC(OCC(O)C(O)C(O)C(/C=N/Nc2ccccc2)=N/Nc2ccccc2)C(O)C(O)C1O (stereo not given),TGI,LOX IMVI melanoma,> 100 µM
same,TGI,NCI/ADR-RES ovarian,> 100 µM
same,TGI,U251 CNS,> 100 µM
same,TGI,DU-145 prostate,> 100 µM
same,TGI,OVCAR-5 ovarian,> 100 µM
same,TGI,IGROV1 ovarian,> 100 µM
same,TGI,M14 melanoma,> 100 µM
same,TGI,HCT-116 colon,> 100 µM
same,TGI,HCT-15 colon,> 100 µM
same,TGI,CAKI-1 renal,> 100 µM
same,TGI,KM12 colon,> 100 µM
same,TGI,HS 578T breast,> 100 µM
same,TGI,NCI-H23 lung,> 100 µM
same,TGI,BT-549 breast,> 100 µM
same,TGI,OVCAR-8 ovarian,> 100 µM
same,TGI,SF-295 CNS,> 100 µM
same,TGI,HCC-2998 colon,> 100 µM
same,TGI,MALME-3M melanoma,> 100 µM
same,TGI,SR leukemia,> 100 µM
same,TGI,MDA-MB-435,> 100 µM
same,TGI,EKVX NSCLC,> 100 µM
same,TGI,TK-10 renal,> 100 µM
same,TGI,SNB-75 CNS,> 100 µM
same,TGI,CCRF-CEM leukemia,> 100 µM
same,TGI,SN12C renal,> 100 µM
same,TGI,MOLT-4 leukemia,> 100 µM
same,TGI,MDA-MB-231 breast,> 100 µM
same,TGI,786-0 renal,> 100 µM
same,TGI,HT29 colon,> 100 µM
same,TGI,SF-539 CNS,> 100 µM
same,TGI,UO-31 renal,> 100 µM
same,TGI,COLO 205 colon,> 100 µM
same,TGI,PC-3 prostate,> 100 µM
same,TGI,ACHN renal,> 100 µM
same,TGI,SF-268 CNS,> 100 µM
same,TGI,RPMI-8226 leukemia,> 100 µM
same,TGI,HL-60(TB) leukemia,> 100 µM
same,TGI,MDA-N,> 100 µM
same,TGI,SW-620 colon,> 100 µM
same,TGI,UACC-257 melanoma,> 100 µM
same,TGI,MCF7 breast,> 100 µM
same,TGI,OVCAR-3 ovarian,> 100 µM
same,TGI,HOP-92 NSCLC,> 100 µM
same,TGI,HOP-62 NSCLC,> 100 µM
same,TGI,A549 NSCLC,> 100 µM
same,TGI,SK-OV-3 ovarian,> 100 µM
same,TGI,SNB-19 CNS,> 100 µM
same,TGI,T-47D breast,56.9 µM
same,TGI,SK-MEL-5 melanoma,> 100 µM
same,TGI,SK-MEL-28 melanoma,> 100 µM
same,TGI,NCI-H460 lung,> 100 µM
COc1ccc(N=C2C(=Nc3ccc(OC)cc3)N(S(=O)(=O)c3ccccc3)C(=S)N2c2ccccc2)cc1,TGI,NCI/ADR-RES ovarian,> 100 µM
same,TGI,U251 CNS,> 100 µM
same,TGI,DU-145 prostate,> 100 µM
same,TGI,OVCAR-5 ovarian,> 100 µM
same,TGI,IGROV1 ovarian,> 100 µM
same,TGI,M14 melanoma,> 100 µM
same,TGI,SK-MEL-2 melanoma,> 100 µM
same,TGI,HCT-15 colon,> 100 µM
same,TGI,CAKI-1 renal,> 100 µM
same,TGI,KM12 colon,> 100 µM
same,TGI,HS 578T breast,> 100 µM
same,TGI,NCI-H23 lung,> 100 µM
same,TGI,BT-549 breast,> 100 µM
same,TGI,OVCAR-8 ovarian,> 100 µM
same,TGI,SF-295 CNS,> 100 µM
same,TGI,HCC-2998 colon,> 100 µM
same,TGI,NCI-H226 lung,> 100 µM
same,TGI,MALME-3M melanoma,> 100 µM
same,TGI,SR leukemia,> 100 µM
same,TGI,MDA-MB-435,> 100 µM
same,TGI,EKVX NSCLC,> 100 µM
same,TGI,TK-10 renal,> 100 µM
same,TGI,NCI-H522 lung,> 100 µM
same,TGI,SNB-75 CNS,> 100 µM
same,TGI,SN12C renal,> 100 µM
same,TGI,MOLT-4 leukemia,> 100 µM
same,TGI,MDA-MB-231 breast,> 100 µM
same,TGI,786-0 renal,> 100 µM
same,TGI,HT29 colon,> 100 µM
same,TGI,SF-539 CNS,> 100 µM
same,TGI,K-562 leukemia,> 100 µM
same,TGI,UO-31 renal,> 100 µM
same,TGI,COLO 205 colon,> 100 µM
same,TGI,PC-3 prostate,> 100 µM
same,TGI,ACHN renal,> 100 µM
same,TGI,SF-268 CNS,> 100 µM
same,TGI,RPMI-8226 leukemia,> 100 µM
same,TGI,MDA-N,> 100 µM
same,TGI,SW-620 colon,> 100 µM
same,TGI,UACC-257 melanoma,> 100 µM
same,TGI,MCF7 breast,> 100 µM
same,TGI,OVCAR-3 ovarian,> 100 µM
same,TGI,HOP-92 NSCLC,> 100 µM
same,TGI,UACC-62 melanoma,> 100 µM
same,TGI,HOP-62 NSCLC,> 100 µM
same,TGI,A549 NSCLC,> 100 µM
same,TGI,RXF 393 renal,> 100 µM
same,TGI,SK-OV-3 ovarian,> 100 µM
same,TGI,SNB-19 CNS,> 100 µM
same,TGI,T-47D breast,> 100 µM
same,TGI,SK-MEL-5 melanoma,> 100 µM
same,TGI,SK-MEL-28 melanoma,> 100 µM
same,TGI,NCI-H460 lung,> 100 µM
